Earlier results, collected in patent US5667811A, “Na-K-ATPase inhibiting natriuretic substances” (The Regents of the University of California, priority 1992, dated 1997).
No end group written: not given here.

Assays:
active transport = details: literature
Na-K-ATPase = details: literature

| Substance | inhibition of active transport (active transport) | Na-K-ATPase inhibition (Na-K-ATPase) |
| --- | --- | --- |
| ANF: atrial natriuretic factor, synthesized or stored in cardiac atria (SLRRSSCFGGRMDRIGAQSGLGCNSFRY; ends and bridges not checked; cysteine pairing not given here; UniProt P01160 124-151, looked up) | does not inhibit active transport |  |
| lysophosphatidyl choline |  | potent Na-K-ATPase inhibitors |
